One assay concerns MCF7. Put plainly: Cytotoxicity against human MCF7 cells assessed as growth inhibition after 48 hrs by sulforhodamine B assay. It is filed as functional, cell-based. To be noted: MCF7, 48 h. A general note: In SRB staining, fixed cells bind dye roughly in proportion to their protein.
The subject of a further assay is CA46. As to the kind of experiment: Cytotoxicity against human CA46 cells assessed as growth inhibition after 24 hrs by coulter counter analysis. It is filed as functional, cell-based. To be noted: CA46, 24 h.

As a reminder, the IC50 is the concentration at which inhibition is half-maximal.

Regarding `O=c1c2cc(Cl)ccc2nc(/C=C/c2ccccc2)n1-c1ncccn1`, the figures for the IC50 with MCF7 and in the assay on CA46 were 340 nM and 1000 nM, respectively.

The values are drawn from ChEMBL document CHEMBL3758146, “Synthesis and biological evaluation of quinazolin-4(3H)-one derivatives bearing dithiocarbamate side chain at C2-position as potential antitumor agents” (Eur J Med Chem, 2016).
